Like-named read-outs stand apart in the source and are kept apart here.
Legend:
[1] = Log D by shake flask method (octanol / PBS pH 7.4, HPLC); type: physicochemical; conditions: octanol / PBS pH 7.4, shake flask
Procedure, shortened: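 Shake-flask partitioning of compound between octanol and PBS at pH 7.4, with phase concentrations quantified by HPLC. The value reported is Log D.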

[2] = tested on: Caco-2 barrier; experiment: Caco-2 permeability assay (CacoReady kit); type: in vitro ADME
Procedure, shortened: (§1)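 Apparent permeability coefficients (Papp) were measured across Caco-2 cell barriers using a ready-to-use kit run per the supplier's protocol. Values serve as a predictor of oral/intestinal bioavailability.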

[3] = target: T1, recombinant human transglutaminase 2 (Homo sapiens, UniProt P21980); experiment: Transglutaminase assay: incorporation of dansylcadaverine into dimethylcasein (DCC-assay); type: biochemical
T1 sequence (P21980 1-687): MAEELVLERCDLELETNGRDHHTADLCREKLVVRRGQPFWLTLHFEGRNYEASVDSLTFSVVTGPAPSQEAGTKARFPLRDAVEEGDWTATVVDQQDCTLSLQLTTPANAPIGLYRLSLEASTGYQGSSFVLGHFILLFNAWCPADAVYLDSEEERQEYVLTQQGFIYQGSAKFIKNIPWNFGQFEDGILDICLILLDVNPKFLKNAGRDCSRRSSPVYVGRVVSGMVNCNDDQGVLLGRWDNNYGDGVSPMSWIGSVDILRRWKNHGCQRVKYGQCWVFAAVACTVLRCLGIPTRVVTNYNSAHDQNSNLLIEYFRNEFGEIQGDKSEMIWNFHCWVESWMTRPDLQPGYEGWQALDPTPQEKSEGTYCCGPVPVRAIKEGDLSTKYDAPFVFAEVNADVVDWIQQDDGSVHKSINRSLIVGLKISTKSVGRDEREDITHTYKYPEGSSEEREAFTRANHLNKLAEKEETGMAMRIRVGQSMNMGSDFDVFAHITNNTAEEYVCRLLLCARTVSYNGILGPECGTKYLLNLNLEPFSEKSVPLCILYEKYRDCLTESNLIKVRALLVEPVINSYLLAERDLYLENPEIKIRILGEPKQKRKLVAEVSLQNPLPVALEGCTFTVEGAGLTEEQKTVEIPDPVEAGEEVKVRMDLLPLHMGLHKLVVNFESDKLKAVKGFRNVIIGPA
Procedure, shortened: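 Recombinant human TG2 (10 nM final) incorporates dansylcadaverine (16.7 μM) into N,N-dimethylcasein (4 μM) in Tris-HCl buffer, pH 8.0, with 10 mM CaCl2 and 10 mM glutathione. Fluorescence (λex 330, λem 500 nm) followed 30 min. The slope between 20–30 min gives activity versus DMSO control, and IC50 comes from the concentration–activity plot.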

[4] = Caco-2 permeability assay (CacoReady kit); type: in vitro ADME; conditions: human
Procedure, shortened: as §1

[5] = recombinant human TG2 10 nM, dansylcadaverine/dimethylcasein, read-out: IC50 TG2
[6] = DCC-assay, values in text, read-out: IC50

CCNC(=O)C(=O)CC[C@H](NC(=O)c1ccn(C)n1)C(=O)Nc1cccn(CC(=O)N[C@]23C[C@H]4C5CC6CC4[C@H](C2)C(C6)[C@H]5C3)c1=O (single isomer, unassigned) [Compound I-80]
logD [1]: B (B: 1 ≤ logD < 3)
Papp [2]: A (A: Papp < 1 × 10^−6 cm/s)

CCNC(=O)C(=O)CC[C@H](NC(=O)c1snnc1C=O)C(=O)Nc1cccn(CC(=O)NC2C3CC4CC(C3)CC2C4)c1=O (stereo partly drawn) [Compound I-120, (S)-N1-ethyl-5-(4-formyl-1,2,3-thiadiazole-5-carboxamido)-N6-(1-(2-(2-adamantylamino)-2-oxoethyl)-2-oxo-1,2-dihydropyridin-3-yl)-2-oxohexanediamide]
IC50 [3, 5]: 150 to 600 nM
logD ([1]; read-out: logD): < 1
Papp [4]: < 1 ×10⁻⁶ cm/s

CCNC(=O)C(=O)CC[C@H](NC(=O)c1cccnc1)C(=O)Nc1cccn(CC(=O)NC23CC4CC(CC(C4)C2)C3)c1=O [Compound I-121, (S)-N1-ethyl-N6-(1-(2-(3,5-dimethyladamantane-1-amino)-2-oxoethyl)-2-oxo-1,2-dihydropyridin-3-yl)-5-(nicotinamido)-2-oxohexanediamide]
IC50 [3, 5]: < 150 nM
logD ([1]; read-out: logD): < 1
Papp [4]: < 1 ×10⁻⁶ cm/s

CCC(CC)CNC(=O)Cn1cccc(NC(=O)[C@H](CCC(=O)C(=O)NC)NC(=O)c2cncn2C)c1=O [Ref. 1, reference compound]
fold more potent compared to Ref. 4 ([3]; ratio of IC50, compare table 1): about 15 fold
IC50 [3, 5]: 600 to 3500 nM
logD ([1]; read-out: logD): < 1
Papp [4]: < 1 ×10⁻⁶ cm/s

CCC(CC)CNC(=O)Cn1cccc(NC(=O)[C@H](CC/C=C/C(=O)OC)NC(=O)c2cncn2C)c1=O [Ref. 2, reference compound]
fold more potent compared to Ref. 3 ([3]; DCC-assay, ratio of IC50): 80 fold
IC50 [3, 6]: 53 nM
IC50 [3, 5]: < 150 nM
logD ([1]; read-out: logD): 1 to 3
Papp [4]: < 1 ×10⁻⁶ cm/s

CCOC(=O)/C=C/CC[C@H](NC(=O)c1cccnc1)C(=O)Nc1ccc(C)n(CC(=O)NCCc2ccccc2)c1=O [Ref. 3, reference compound]
IC50 [3, 6]: 4270 nM
IC50 [3, 5]: 3500 to 10000 nM
logD ([1]; read-out: logD): 1 to 3
Papp [4]: < 1 ×10⁻⁶ cm/s

CCNC(=O)C(=O)CC[C@H](NC(=O)c1cccnc1)C(=O)Nc1cccn(CC(=O)NCCc2ccccc2)c1=O [Ref. 4, reference compound]
IC50 [3, 5]: 3500 to 10000 nM
logD ([1]; read-out: logD): < 1
Papp [4]: < 1 ×10⁻⁶ cm/s

From patent publication US20240270715A1, “INHIBITORS OF TRANSGLUTAMINASES” (ZEDIRA GMBH, priority 2021, published 2024)
